Article PMC6050274, “Buparlisib is a brain penetrable pan-PI3K inhibitor” (Scientific Reports, 2018)
Where “and” joins values, the source holds several entries; their conditions need not be identical. Equal values may be shown once. Read-outs that look alike come from different tables or passages of the source.

Legend:
[1] = molecular target: T1, murine BCRP (Abcg2/Bcrp1) (Mus musculus, UniProt Q7TMS5); experiment: Concentration equilibrium transport assay (CETA), MDCK-Bcrp1; type: in vitro ADME; conditions: MDCK-Bcrp1, 100 nM
T1 construct: expressed in transfected cells; host or cells: MDCK (MDCK-Bcrp1)
T1 sequence (Q7TMS5 1-657): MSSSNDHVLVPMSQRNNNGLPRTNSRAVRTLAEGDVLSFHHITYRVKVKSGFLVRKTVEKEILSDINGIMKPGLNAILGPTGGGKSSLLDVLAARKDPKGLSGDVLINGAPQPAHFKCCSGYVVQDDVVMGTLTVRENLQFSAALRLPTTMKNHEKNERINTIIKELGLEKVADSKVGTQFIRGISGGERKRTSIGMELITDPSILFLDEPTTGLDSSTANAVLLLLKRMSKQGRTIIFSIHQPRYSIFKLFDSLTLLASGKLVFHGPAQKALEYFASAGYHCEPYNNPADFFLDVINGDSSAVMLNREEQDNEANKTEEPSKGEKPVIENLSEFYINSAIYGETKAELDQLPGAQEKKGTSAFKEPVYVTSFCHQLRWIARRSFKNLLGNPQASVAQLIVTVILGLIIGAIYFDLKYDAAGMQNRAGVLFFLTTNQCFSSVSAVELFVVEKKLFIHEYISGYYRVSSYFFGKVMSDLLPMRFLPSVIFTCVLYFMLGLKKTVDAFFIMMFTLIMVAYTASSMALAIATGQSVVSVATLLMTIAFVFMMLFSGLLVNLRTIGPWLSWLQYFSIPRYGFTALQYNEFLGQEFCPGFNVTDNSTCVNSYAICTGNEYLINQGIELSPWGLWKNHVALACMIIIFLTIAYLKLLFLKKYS
From the text: Figure 1 Analysis of buparlisib substrate affinity for ABC transporters using in vitro transport assays. (A) The chemical structure of buparlisib. (B) A conventional transport assay (CTA) using LLC-PK1 cells in presence of zosuquidar to block endogenous (porcine) P-gp activity. […] (C) Concentration equilibrium transport assays (CETAs) using MDCK or LLC cells that overexpress murine BCRP, (Bcrp1), human BCRP, murine P-gp (Mdr1a) or human P-gp (MDR1). […] The P-gp inhibitor zosuquidar was used in all MDCK cell lines to inhibit endogenous P-gp activity and in LLC cell lines to validate possible P-gp-mediated translocations. […]
Conventional bidirectional transport assays (CTAs) and concentration equilibrium transport assays (CETAs) were performed as described previously. […] Transwell leakiness was determined as Carboxyl-[^14C]-inulin translocation exceeding 1.5% per hour and these wells were excluded from the analysis. […]
As described in detail before, CETA results were analysed with the General linear model repeated measures procedure of SPSS (v22; SPSS Inc, Chicago, IL)[25]. […] The standard error of the oral bioavailability was calculated using the formula below: SEF=F(SEAUCp.o./AUCp.o.)^2+(SEAUCi.v./AUCi.v.)^2 Buparlisib concentrations in WT and transporter knockout mice in vivo were compared using one-way analysis of variance followed by post hoc Bonferroni tests. […]

[2] = Plasma pharmacokinetics after i.v. and oral administration in male and female mice; type: in vivo, FVB mice; conditions: for bioavailability: p.o. (5 mg/kg) vs i.v. (2 mg/kg), read-out: F (oral bioavailability); for Vd/F: read-out: Vz/F
Experimental: Finally, we studied the pharmacokinetics of buparlisib in male and female mice and assessed the oral bioavailability in both genders by comparing the area-under-the-plasma concentration-time-curves (AUCs) following intravenous and oral administration. Both after oral and i.v. administration there was no difference in pharmacokinetics between male and female mice (Fig. 3C, Table 1).
The pharmacokinetics of buparlisib were analysed in WT, Abcg2^−/−, Abcb1a/b^−/− and Abcb1a/b; Abcg2^−/− FVB mice. All knockout mice strains have been developed within our institute[41]–[43]. For i.v. administration, buparlisib was dissolved in DMSO and injected at a dose of 2 mg/kg. For oral administration, buparlisib was formulated in DMSO:Cremophor EL:water (1:1:8 v/v/v) and administered at 1, 2 or 5 mg/kg as indicated. Tail vein bleeding was used to collect blood at intermediate time points, whereas at the last time point blood was drawn by cardiac puncture and various tissue were collected. Plasma was obtained from whole blood by centrifugation (5 min, 5,000 rpm, 4 °C). After weighing, tissues were homogenized using a FastPrep®-24 (MP-Biomedicals, NY) in 1% (w/v) bovine serum albumin in water. Buparlisib was extracted from plasma and tissue homogenate by liquid-liquid extraction with ethyl acetate using AZD8055 as an internal standard.
Buparlisib was measured in samples from in vitro transport assays and in vivo pharmacokinetic studies using an LC-MS/MS system comprised of an UltiMate 3000 LC Systems (Dionex, Sunnyvale, CA) and an API 4000 mass spectrometer (Sciex, Framingham, MA). Samples were run through a Securityguard C18 pre-column (Phenomenex, Utrecht, The Netherlands) prior to separation on a ZORBAX Extend-C18 column (Agilent, Santa Clara, CA). Elution was done using a in a 5 minute gradient from 20% to 95% B (mobile phase A was 0.1% HCOOH in water (v/v) and mobile phase B was methanol). 95% B was maintained for 3 min followed by re-equilibration at 20% B. Multiple reaction monitoring was performed at 411.3/367.2 (buparlisib) and 418.2/138.4 (AZD8055). Analyst® 1.6.2 software (AB Sciex; Foster City, CA) was used for system control and data analysis.
As described in detail before, CETA results were analysed with the General linear model repeated measures procedure of SPSS (v22; SPSS Inc, Chicago, IL)[25]. PK solver was used to determine pharmacokinetic parameters. The standard error of the oral bioavailability was calculated using the formula below: SEF=F(SEAUCp.o./AUCp.o.)^2+(SEAUCi.v./AUCi.v.)^2 Buparlisib concentrations in WT and transporter knockout mice in vivo were compared using one-way analysis of variance followed by post hoc Bonferroni tests. Statistical differences between the buparlisib PK parameters in male and female mice were calculated as Bonferroni corrected p-values using multiple Student’s t-tests. Differences were considered statistically significant when p < 0.05.

[3] = FVB, mouse, plasma, iv, i.v. (2 mg/kg), female
[4] = FVB, mouse, plasma, iv, i.v. (2 mg/kg), male
[5] = FVB, mouse, plasma, po, p.o. (5 mg/kg), female
[6] = FVB, mouse, plasma, po, p.o. (5 mg/kg), male

In the case of `Nc1cc(C(F)(F)F)c(-c2cc(N3CCOCC3)nc(N3CCOCC3)n2)cn1` [buparlisib], the “substrate of murine BCRP” value [1] is reported as “very weak substrate”, the Cmax [2, 3] is reported as 1900 ± 410 ng/mL and the half-life [2, 3] is reported as 1.6 ± 0.07 h. It also gave a Vd ([2]; FVB, mouse, plasma, iv, i.v. (2 mg/kg), female, read-out: Vz) of 0.86 ± 0.14 L/kg, a Cmax [2, 4] of 2100 ± 190 ng/mL and a half-life [2, 4] of 1.67 ± 0.07 h. For the same compound, the Vd ([2]; FVB, mouse, plasma, iv, i.v. (2 mg/kg), male, read-out: Vz) was 0.8 ± 0.23 L/kg, the concentration at 24 h ([2]; FVB, mouse, plasma, oral, mice, 5 mg/kg, read-out: plasma level after 24 h) was < 1 ng/mL and < 2.4 nM and the bioavailability ([2]; FVB, mouse, plasma, oral, female) was 112 ± 21.1%. The bioavailability ([2]; FVB, mouse, plasma, oral, male) was 103 ± 26.1%, the CL/F [2, 5] was 5.33 mL/min/kg and the Cmax [2, 5] was 3000 ± 490 ng/mL. For the same compound, the Tmax [2, 5] was 0.67 ± 0.39 h, the half-life [2, 5] was 1.4 ± 0.04 h and the Vd/F [2, 5] was 0.63 ± 0.08 L/kg. For the same compound, the CL/F [2, 6] was 5.17 mL/min/kg, the Cmax [2, 6] was 3300 ± 1300 ng/mL and the Tmax [2, 6] was 1 h. For the same compound, the half-life [2, 6] was 1.44 ± 0.06 h, the Vd/F [2, 6] was 0.64 ± 0.03 L/kg and the oral bioavailability ([2]; both genders, dose-corrected AUC oral vs i.v.) was “complete”. For the same compound, the Vd ([2]; both sexes, FVB, mouse, plasma, intravenous, 2 mg/kg, mice, read-out: volume of distribution) was under 1 L/kg, the CL ([2]; i.v. (2 mg/kg), female) was 0.37 ± 0.06 L/kg^.h and the “Plasma AUC 0-∞” value ([2]; i.v. (2 mg/kg), female) was 5600 ± 860 ng/ml^.h. For the same compound, the CL ([2]; i.v. (2 mg/kg), male) was 0.33 ± 0.09 L/kg^.h, the “Plasma AUC 0-∞” value ([2]; i.v. (2 mg/kg), male) was 6300 ± 1500 ng/ml^.h and the “difference in pharmacokinetics between male and female mice” value ([2]; oral and i.v. administration) was “no difference”. For the same compound, the “Plasma AUC 0-∞” value ([2]; p.o. (5 mg/kg), female) was 16000 ± 1700 ng/ml^.h and the “Plasma AUC 0-∞” value ([2]; p.o. (5 mg/kg), male) was 16000 ± 1200 ng/ml^.h.
